Here are results for one molecule from US5116816A, “Cyclosporin peptolides having an α-hydroxycarboxylic acid at position 8” (Sandoz Ltd., priority 1987, dated 1992).

This assay deals with UV erythema. Briefly: UV Erythema test. It counts as in vivo, guinea pigs. To be noted: topical solution, erythema estimated four hours after application. Here is the method: The test is carried out on female albino guinea pigs, approx. 150 g wt. The animals are shaved on both flanks using a Braun micro razor, without causing skin irritation. For each test substance five animals are subjected to a defined intensity of UV radiation for 10 seconds on each of four areas of skin (10 mm diameter). Immediately afterwards 50 microliters of a solution of the test substance in ethanol/propylene glycol/dimethylacetamide (19:19:2 v/v) is applied to two of the irradiated areas on each animal and 50 microliters of the solvent mixture to the other two as controls. Four hours after application, the degree of erythema is estimated visually.

Consider `COc1ccc2c(c1)c(CC(=O)O)c(C)n2C(=O)c1ccc(Cl)cc1` [indomethacin], for which the “effective concentration in UV-erythema test” value is listed as 2.5%.
